Source: ChEMBL document CHEMBL1201862, “PubChem BioAssay data set” (2004)
Activity calls are given as the source filed them.

Assays:
Cytochrome P450 1A2 = target: T1, Cytochrome P450 1A2 (Homo sapiens, UniProt P05177);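 note: PubChem cytochrome P450 panel assay, CYP1A2 panel member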
T1 sequence (P05177 whole entry): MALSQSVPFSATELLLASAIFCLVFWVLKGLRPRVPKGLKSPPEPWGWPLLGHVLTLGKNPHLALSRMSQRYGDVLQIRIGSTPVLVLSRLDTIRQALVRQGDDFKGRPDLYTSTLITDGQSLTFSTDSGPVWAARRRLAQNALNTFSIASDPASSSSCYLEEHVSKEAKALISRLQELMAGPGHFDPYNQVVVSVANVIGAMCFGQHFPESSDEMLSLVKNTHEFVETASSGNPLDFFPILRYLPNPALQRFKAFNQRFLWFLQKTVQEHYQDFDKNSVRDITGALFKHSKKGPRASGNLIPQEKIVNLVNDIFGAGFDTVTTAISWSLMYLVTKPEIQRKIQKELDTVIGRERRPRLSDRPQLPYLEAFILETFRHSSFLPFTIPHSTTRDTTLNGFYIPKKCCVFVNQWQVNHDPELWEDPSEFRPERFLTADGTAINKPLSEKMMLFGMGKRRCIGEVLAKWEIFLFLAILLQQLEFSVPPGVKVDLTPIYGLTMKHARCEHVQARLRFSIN

[1] = target: T2, Heat shock factor protein 1 (Mus musculus, UniProt P38532); experiment: decrease of HSF1-responsive luciferase luminescence – cell-based, NIH3T3, dose retest, confirmation (AID 2382); format: functional;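 note: NIH3T3 fibroblasts with HSF1-driven luciferase reporter stressed by proteasome inhibitor MG132; luminescence from HSF1-driven luciferase expression after 8 hours of MG132 stress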
T2 sequence (P38532 whole entry): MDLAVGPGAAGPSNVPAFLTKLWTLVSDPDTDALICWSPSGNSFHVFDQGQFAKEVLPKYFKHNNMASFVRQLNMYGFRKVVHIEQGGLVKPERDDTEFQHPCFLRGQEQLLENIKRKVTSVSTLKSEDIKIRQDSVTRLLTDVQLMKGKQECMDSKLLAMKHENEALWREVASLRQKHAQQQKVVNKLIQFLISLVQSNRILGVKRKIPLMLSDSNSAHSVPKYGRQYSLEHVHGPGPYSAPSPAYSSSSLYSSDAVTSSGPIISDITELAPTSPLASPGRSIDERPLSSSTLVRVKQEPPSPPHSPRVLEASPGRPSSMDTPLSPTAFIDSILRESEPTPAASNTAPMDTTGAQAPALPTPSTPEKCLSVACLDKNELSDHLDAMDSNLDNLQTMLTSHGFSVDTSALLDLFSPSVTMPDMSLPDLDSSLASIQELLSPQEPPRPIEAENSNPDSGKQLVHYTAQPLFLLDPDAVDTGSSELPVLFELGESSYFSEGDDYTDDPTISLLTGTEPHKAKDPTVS

Cytochrome P450 2C19 = Cytochrome P450 2C19 (Homo sapiens, UniProt P33261); experiment: Cytochrome panel assay with activity outcomes. Panel member name: p450-cyp2c19 Compounds with AC50 equal or less than 10 uM are considered active; format: functional
Sequence of Cytochrome P450 2C19 (P33261 whole entry): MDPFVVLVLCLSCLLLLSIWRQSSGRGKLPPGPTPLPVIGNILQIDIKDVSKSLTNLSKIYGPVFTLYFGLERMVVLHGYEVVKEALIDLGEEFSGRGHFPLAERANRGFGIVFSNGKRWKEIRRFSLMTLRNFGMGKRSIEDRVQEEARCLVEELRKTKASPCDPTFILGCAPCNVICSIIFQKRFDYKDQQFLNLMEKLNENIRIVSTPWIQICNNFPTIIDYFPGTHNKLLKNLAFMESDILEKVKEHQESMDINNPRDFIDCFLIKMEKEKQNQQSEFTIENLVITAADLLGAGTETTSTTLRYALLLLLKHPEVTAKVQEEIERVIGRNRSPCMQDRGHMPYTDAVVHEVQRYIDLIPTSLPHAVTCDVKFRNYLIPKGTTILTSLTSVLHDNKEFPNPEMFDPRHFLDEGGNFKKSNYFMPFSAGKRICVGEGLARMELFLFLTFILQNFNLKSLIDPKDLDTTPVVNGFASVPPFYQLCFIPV

[2] = Trypanosoma cruzi growth suppression in host cells – NIH3T3 host cells, beta-gal luminescence, confirmation (AID 2044); format: functional, cell-based;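 note: intracellular parasites grown in NIH/3T3 mouse fibroblasts as host cells; luminescent beta-galactosidase reporter signal from transgenic T. cruzi replicating inside host cells; inhibitors lower the luminescence signal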
[3] = NIH3T3 cell viability loss – ATP luminescence, mouse fibroblasts, counter-screen, dose response (AID 2010); format: functional, cell-based;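 note: cells exposed to compound for about 90 hours before reading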
[4] = system: Streptococcus sp. 'group A'; experiment: Streptococcus pyogenes SK(-)GAS viability under kanamycin – luminescence, BacTiterGlo, confirmation, counter-screen for streptokinase expression inhibitor project, dose response (AID 1900); format: functional, organism-based
Streptococcus = experiment: GAS UMAA2166 growth inhibition – luminescence, BacTiterGlo, counter-screen for streptokinase expression inhibitor project, dose response (AID 1915); format: functional, organism-based;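 note: potency for reduction of bacterial viability or growth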

Row | Structure (SMILES) | EC50 [2] | EC50 [3] | further results
1 | Cc1ccc2oc(-c3cccc(NC(=S)NC(=O)/C=C/c4ccco4)c3)nc2c1 | – | – | AC50 (Cytochrome P450 1A2): 3.55 µM (inconclusive)
2 | Cc1ccc(S(=O)(=O)N(CC(=O)N2CCc3ccccc3C2)c2ccc(Cl)c(Cl)c2)cc1 | – | – | EC50 [1]: > 195 µM (not active)
3 | CNC(=O)/C(C#N)=C/c1ccc(-c2ccc(OC)cc2[N+](=O)[O-])o1 | – | – | EC50 [1]: > 195 µM (not active)
4 | O=C(Nc1ccccc1)N1CCSc2cc(Cl)ccc21 | – | – | AC50 (Cytochrome P450 1A2): 3.55 µM (inconclusive)
5 | Cc1ccc(C(C(=O)NCc2ccco2)N(C(=O)CNC(=O)c2cccs2)c2ccc(C)cc2)cc1 (stereo not given) | – | – | AC50 (Cytochrome P450 2C19; read-out: AC50): 2.51 µM (inconclusive)
6 | COc1ccc(C(=O)NC(=S)N2CCNC(=O)C2CC(=O)OC(C)C)cc1 (stereo not given) | – | – | EC50 [1]: > 195 µM (not active)
7 | CCN(c1ccccc1)S(=O)(=O)c1ccc(Cl)c(NC(=O)CN2CCCCCC2)c1 | 1.04 µM (active) | > 60 µM (not active) | –
8 | Fc1ccccc1N1CCN(Cc2cc(-c3ccccc3)on2)CC1 | – | – | EC50 [1]: > 195 µM (not active)
9 | CCN(CC)CCCNC(=O)c1oc2ccc(S(=O)(=O)N3CC(C)CC(C)C3)cc2c1C (stereo not given) | 0.422 µM (active) | > 30 µM (not active) | –
10 | COc1cc(NC(=O)COC(=O)/C=C/c2c(C)nn(-c3ccc(F)cc3)c2Cl)cc(OC)c1 | 0.691 µM (active) | > 60 µM (not active) | –
11 | CCCCc1ccc(NC(S)=NCc2cccc(OC)c2)cc1 | 3.51 µM (active) | > 60 µM (not active) | –
12 | COC(=O)c1ccc(OC)c(CN2CCCN(Cc3cc(C)ccc3C)S2(=O)=O)c1 | 1.11 µM (active) | > 60 µM (not active) | –
13 | Fc1ccc(Cn2c(SCc3ccc(F)c(F)c3)nnc2C(F)(F)F)cc1 | – | – | AC50 (Cytochrome P450 1A2): 17.8 µM (inconclusive)
14 | Cc1c(Cl)ccc2c(C(=O)Nc3cc(C(C)(C)C)on3)cc(-c3ccccn3)nc12 | 1.95 µM (active) | > 60 µM (not active) | –
15 | CCOC(=O)c1cnc2ccccc2c1Nc1ccc2c(c1)OCCO2 | – | – | EC50 [1]: 6 µM (active)
16 | c1ccc(CCNc2nc(-c3ccncc3)cs2)cc1 | 1.8 µM (active) | > 60 µM (not active) | –
17 | c1cc2c(cc1C1CCCN1)OCCCO2 (stereo not given) | – | – | EC50 [1]: > 195 µM (not active)
18 | Cc1ccc(SCCNC(=O)c2ccc(C)c(S(=O)(=O)Nc3ccccc3C)c2)cc1 | – | – | AC50 (Cytochrome P450 1A2): 14.1 µM (inconclusive)
19 | CC(C)Oc1ccc(C(=O)O)cc1 | – | – | EC50 [1]: 69.4 µM (active)

Row | Structure (SMILES) | EC50 [2] | EC50 [3] | further results
20 | CCCOc1ccc(N2C(=O)CC(SC(=N)N3N=C(c4ccccc4)CC3c3ccccc3)C2=O)cc1 (stereo not given) | 2.05 µM (active) | > 60 µM (not active) | –
21 | C/C(Cn1cnc([N+](=O)[O-])n1)=N\NC(=O)c1cccc(F)c1 | 1.39 µM (active) | > 60 µM (not active) | –
22 | O=c1c(-c2ccccc2)nc2cncnc2n1C1CC1 | – | – | AC50 (Cytochrome P450 2C19; read-out: AC50): 3.16 µM (inconclusive)
23 | CCc1ccccc1NC(=O)NC1CC2CCC(C1)N2Cc1cccs1 (stereo not given) | – | – | AC50 (Cytochrome P450 2C19; read-out: AC50): 17.8 µM (inconclusive)
24 | CSc1nc2ccc(NS(=O)(=O)c3ccc([N+](=O)[O-])cc3)cc2s1 | – | – | EC50 [1]: > 195 µM (not active)
25 | COC(=O)C1(C)C=C2C(=C(C)C(=O)C2C)CN1 (stereo not given) | – | – | AC50 (Cytochrome P450 1A2): 31.6 µM (inconclusive)
26 | O=C(O)c1cccnc1SCC(=O)N1CCCCCC1 | – | – | AC50 (Cytochrome P450 2C19): inconclusive
27 | Cc1cccc(-n2c(=O)c3c(n4cnnc24)-c2ccccc2CC32CCCCC2)c1 | – | – | AC50 (Cytochrome P450 1A2): 22.4 µM (inconclusive)
28 | C#C[C@@]1(O)CC[C@@H]2[C@@H]3CCC4=CC(=O)CC[C@@]4(C)[C@H]3CC[C@]21C | – | – | AC50 (Cytochrome P450 2C19; read-out: AC50): 0.501 µM (inconclusive)
29 | O=C(NC(NC(=S)Nc1cc(Cl)ccc1Cl)C(Cl)(Cl)Cl)c1ccco1 (stereo not given) | – | – | AC50 (Cytochrome P450 1A2): 12.6 µM (inconclusive)
30 | SC(COCc1ccccc1)CN1CCN(Cc2ccc3c(c2)OCO3)CC1 (stereo not given) | 2.1 µM (active) | > 60 µM (not active) | –
31 | Cc1ccc(C(=O)C[n+]2cccc3cc(C)ccc32)cc1 | 11.2 µM (active) | > 60 µM (inconclusive) | –
32 | C[C@@H](C(=O)OC1C[C@H]2CC[C@@H](C1)N2C)c1ccc(Br)cc1 (stereo not given in full) | – | – | AC50 (Cytochrome P450 1A2): 39.8 µM (inconclusive)
33 | CCOC(=O)N1CCN(C(=O)c2ccc3c(c2)NC(=O)/C(=C/c2ccccc2)S3)CC1 | – | – | EC50 [4]: 1.48 µM (active); EC50 (Streptococcus): 4.42 µM (active)
34 | COC(=O)CCC(=O)NNC(=O)c1cccc(Br)c1 | – | – | EC50 [1]: > 195 µM (not active)
35 | C/C(=N\OC(=O)c1ccc(F)cc1)c1nccs1 | – | – | AC50 (Cytochrome P450 1A2): 28.2 µM (inconclusive)
36 | O=c1c(-c2ccc(F)cc2)nc2cnc(Nc3ccccc3)nc2n1Cc1cccs1 | – | – | AC50 (Cytochrome P450 1A2): 2 µM (inconclusive)
37 | COc1cccc(Cn2c(=O)c(-c3ccc(F)cc3)nc3cnc(N4CCOCC4)nc32)c1 | – | – | AC50 (Cytochrome P450 2C19): inconclusive
38 | CCCC(C)n1nc(O)c2c1NC(=O)CSC2c1ccc(OC)c(OC)c1 (stereo not given) | – | – | EC50 [1]: > 195 µM (not active)

Row | Structure (SMILES) | EC50 [2] | EC50 [3] | further results
39 | Cc1c(C(=O)NC(=S)NCc2cccnc2)oc2ccccc12 | 1.93 µM (active) | > 60 µM (inconclusive) | –
40 | O=C(c1ccc(Cn2c(=S)[nH]c3ccc(N4CCOCC4)cc3c2=O)cc1)N1CCN(c2ccc(F)cc2)CC1 | 0.583 µM (active) | > 60 µM (not active) | –
41 | O=C(CCCOc1ccccc1)Nc1nccs1 | – | – | EC50 [1]: > 195 µM (not active)
42 | Brc1ccc(-c2csc(N/N=C/c3cccnc3)n2)cc1 | 1.44 µM (active) | > 60 µM (not active) | –
43 | O=C(c1cc(Cl)ccc1Cl)N1CCOCC1 | – | – | EC50 [1]: > 195 µM (not active)
44 | Brc1ccc2ncnc(Nc3cccc4ccccc34)c2c1 | – | – | AC50 (Cytochrome P450 2C19; read-out: AC50): 2.82 µM (inconclusive)
45 | Cc1ccc(-c2ccc(CCC(=O)O)n2CC2CCCO2)cc1 (stereo not given) | – | – | AC50 (Cytochrome P450 2C19; read-out: AC50): 14.1 µM (inconclusive)
46 | COc1ccc(CN(Cc2cccnc2)S(=O)(=O)c2ccc(-n3cnnn3)c(C)c2)cc1OC | 2.19 µM (active) | > 30 µM (not active) | –
47 | COc1ccc(NC(=S)N2CCN(C/C=C/c3ccccc3)CC2)cc1OC | – | – | AC50 (Cytochrome P450 1A2): 28.2 µM (inconclusive); AC50 (Cytochrome P450 2C19; read-out: AC50): 15.8 µM (inconclusive)
48 | Cc1ccc(C(=O)NNC(=O)C2CCCN(c3ncccn3)C2)cc1 (stereo not given) | – | – | AC50 (Cytochrome P450 2C19; read-out: AC50): 39.8 µM (inconclusive)
49 | CCC1CCc2sc(C(=O)NCC(c3ccc(OC)cc3)N3CCCC3)cc2C1 (stereo not given) | 1.83 µM (active) | > 60 µM (not active) | –
50 | C/C(=N/NC(N)=S)c1ccc(Br)s1 | 2.07 µM (active) | > 60 µM (not active) | –
51 | CCN(Cc1ccncc1)C(=O)c1cc(COc2ccc(C)c(C)c2)on1 | 1.07 µM (active) | > 60 µM (not active) | –
52 | CN/C(=N/CCSCc1nc[nH]c1C)NC#N [CIMETIDINE] | – | – | AC50 (Cytochrome P450 1A2): 50.1 µM (inconclusive)
53 | CN1CCC(OC(=O)c2ccccc2)CC1 | 0.263 µM (active) | 58.6 µM (active) | –
54 | CC1CN(C(=O)COc2ncnc3ccccc23)CC(C)O1 (stereo not given) | – | – | AC50 (Cytochrome P450 2C19; read-out: AC50): 39.8 µM (inconclusive)
55 | COC(=O)c1ccc(/C=C/c2ccc3cccc(OC(C)=O)c3n2)cc1 | – | – | EC50 [4]: 2.08 µM (active); EC50 (Streptococcus): 8.49 µM (active)
56 | O=[N+]([O-])c1nn(-c2ccc3c(c2)OCCO3)[n+]([O-])c1NC1CCN(Cc2ccccc2)CC1 | 0.163 µM (active) | > 60 µM (not active) | –
57 | COc1cccc(-c2cc(NCc3cccs3)ncn2)c1 | – | – | AC50 (Cytochrome P450 2C19; read-out: AC50): 25.1 µM (inconclusive)
